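Grown in 96-well plates, cells were treated for 48 hours with each compound at five concentrations. Insufficient inhibition: endpoint recorded as highest concentration tested. At the GI50, growth is halved.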 Calls of active or inactive are those of the source. Cut-off read from the data, not from the text of the source: active = GI50 up to about 1.1 µM and inactive = higher.
Key:
Assay in all cases: NCI tumour cell line growth inhibition, 48 h
HOP-92 = test system: HOP-92
SK-OV-3 = test system: SK-OV-3
T47D = test system: T47D
NCI-H460 = test system: NCI-H460
U-251 = test system: U-251
IGROV-1 = test system: IGROV-1
RPMI-8226 = test system: RPMI-8226
BT-549 = test system: BT-549
HOP-62 = test system: HOP-62
OVCAR-8 = test system: OVCAR-8
Malme-3M = test system: Malme-3M
A549 = test system: A549
SNB-19 = test system: SNB-19
LOX IMVI = test system: LOX IMVI
K562 = test system: K562
SK-MEL-2 = test system: SK-MEL-2
HT-29 = test system: HT-29
SW-620 = test system: SW-620
PC-3 = test system: PC-3

Measured: GI50

CN(C)CCCn1c2c3ccccc3ccc2c2oc(=O)c3ccccc3c21
inactive: HOP-92 23.8 µM | SK-OV-3 14.8 µM | T47D 12.1 µM | NCI-H460 2.05 µM | U-251 3.26 µM | IGROV-1 7.93 µM | RPMI-8226 4.63 µM | BT-549 > 40.6 µM | HOP-62 5.7 µM | OVCAR-8 3.57 µM | Malme-3M 7.64 µM | A549 4.53 µM | SNB-19 5.96 µM | LOX IMVI 4.63 µM | K562 2.45 µM | SK-MEL-2 9.23 µM | HT-29 5.53 µM | SW-620 2 µM

O[C@H]1[C@H](O)[C@@H](O)CN2CC[C@H](O)[C@H]12 [CASTANOSPERMINE]
inactive: HOP-92 > 100 µM | SK-OV-3 > 100 µM | NCI-H460 > 100 µM | U-251 > 100 µM | IGROV-1 > 100 µM | RPMI-8226 > 100 µM | HOP-62 > 100 µM | OVCAR-8 > 100 µM | Malme-3M > 90.6 µM | A549 > 100 µM | SNB-19 > 100 µM | LOX IMVI > 100 µM | K562 > 100 µM | SK-MEL-2 99.3 µM | HT-29 > 100 µM | SW-620 > 100 µM

O=C(O)/C(=C/c1c(O)ccc2ccccc12)c1csc(-c2nc(/C(=C\c3c(O)ccc4ccccc34)C(=O)O)cs2)n1
inactive: HOP-92 1.86 µM | SK-OV-3 12.3 µM | NCI-H460 19 µM | U-251 14 µM | IGROV-1 11.1 µM | RPMI-8226 9.38 µM | HOP-62 10 µM | OVCAR-8 22.2 µM | Malme-3M 1.61 µM | A549 23.3 µM | SNB-19 13.5 µM | LOX IMVI 19.8 µM | K562 15.8 µM | SK-MEL-2 2.33 µM | HT-29 22.2 µM | SW-620 24 µM

Cn1c(-c2ccccc2)cc(-c2cccs2)c1-c1cccs1
inactive: HOP-92 > 29.2 µM | SK-OV-3 > 100 µM | NCI-H460 71.9 µM | U-251 > 100 µM | IGROV-1 > 100 µM | RPMI-8226 73.3 µM | HOP-62 > 81.3 µM | OVCAR-8 > 100 µM | Malme-3M > 100 µM | A549 > 100 µM | SNB-19 > 100 µM | LOX IMVI 52 µM | K562 51.6 µM | SK-MEL-2 > 100 µM | HT-29 51.2 µM | SW-620 > 100 µM

COc1ccc2[nH]c(=O)cc(C)c2c1[N+](=O)[O-]
inactive: HOP-92 32.4 µM | SK-OV-3 > 100 µM | NCI-H460 > 100 µM | U-251 > 100 µM | IGROV-1 > 100 µM | RPMI-8226 > 100 µM | HOP-62 > 100 µM | OVCAR-8 > 100 µM | Malme-3M > 100 µM | A549 > 100 µM | SNB-19 > 100 µM | LOX IMVI > 100 µM | K562 > 100 µM | SK-MEL-2 > 100 µM | HT-29 > 100 µM | SW-620 > 100 µM

C=CCCC1(C)CCCNC1=S (configuration not stated)
inactive: HOP-92 > 100 µM | SK-OV-3 > 100 µM | NCI-H460 > 100 µM | U-251 > 100 µM | IGROV-1 > 100 µM | RPMI-8226 > 100 µM | HOP-62 > 100 µM | OVCAR-8 > 100 µM | Malme-3M > 100 µM | A549 > 100 µM | SNB-19 > 100 µM | LOX IMVI > 100 µM | K562 > 100 µM | SK-MEL-2 > 100 µM | HT-29 > 100 µM | SW-620 > 100 µM

O=C(N=C1N(c2ccccc2)C(=O)C(=O)N1c1ccccc1)c1ccccc1
inactive: HOP-92 2.99 µM | SK-OV-3 4.68 µM | T47D 15.6 µM | NCI-H460 11.7 µM | U-251 11.7 µM | IGROV-1 10.5 µM | PC-3 14.7 µM | RPMI-8226 13.8 µM | HOP-62 11.5 µM | OVCAR-8 9.35 µM | Malme-3M 17.4 µM | A549 5.48 µM | SNB-19 13.3 µM | LOX IMVI 3.78 µM | K562 29.2 µM | SK-MEL-2 15.5 µM | HT-29 13.7 µM | SW-620 13.1 µM

O=C(c1ccco1)N(C(=S)N1CCN(c2ccccn2)CC1)c1ccccc1
inactive: HOP-92 > 100 µM | SK-OV-3 > 100 µM | NCI-H460 > 100 µM | U-251 > 100 µM | IGROV-1 > 100 µM | RPMI-8226 > 100 µM | HOP-62 > 100 µM | OVCAR-8 > 100 µM | Malme-3M > 100 µM | A549 > 100 µM | SNB-19 > 100 µM | LOX IMVI > 100 µM | K562 > 100 µM | SK-MEL-2 > 100 µM | HT-29 > 100 µM | SW-620 > 100 µM

NC1=NN(c2ccccc2)C(=O)C1C(=O)C(=O)Nc1ccccc1 (configuration not stated)
inactive: HOP-92 > 100 µM | SK-OV-3 > 100 µM | NCI-H460 > 100 µM | U-251 > 100 µM | IGROV-1 > 100 µM | RPMI-8226 > 100 µM | HOP-62 > 100 µM | OVCAR-8 > 100 µM | Malme-3M > 100 µM | A549 > 100 µM | SNB-19 > 100 µM | LOX IMVI > 100 µM | K562 > 100 µM | SK-MEL-2 > 100 µM | HT-29 > 100 µM | SW-620 > 100 µM

Sc1nn2c(COc3ccc(Cl)cc3)nnc2s1
inactive: HOP-92 > 100 µM | SK-OV-3 > 100 µM | T47D > 100 µM | NCI-H460 > 100 µM | U-251 > 100 µM | IGROV-1 > 100 µM | PC-3 > 100 µM | RPMI-8226 > 100 µM | HOP-62 > 100 µM | OVCAR-8 > 100 µM | Malme-3M > 100 µM | A549 > 100 µM | SNB-19 > 100 µM | K562 > 100 µM | SK-MEL-2 > 100 µM | HT-29 > 100 µM | SW-620 > 100 µM

Nc1ccc2c(c1)NCCN2
inactive: HOP-92 > 100 µM | NCI-H460 4.39 µM | U-251 22.9 µM | IGROV-1 8.36 µM | PC-3 > 100 µM | RPMI-8226 70.1 µM | BT-549 37.2 µM | HOP-62 > 100 µM | OVCAR-8 50.9 µM | Malme-3M 51.4 µM | A549 18.2 µM | SNB-19 9.84 µM | LOX IMVI 8.05 µM | K562 18.3 µM | SK-MEL-2 > 100 µM | HT-29 42.3 µM

COC(=O)C1(O)CC(=O)CCC1c1ccc(OC)cc1 (configuration not stated)
inactive: HOP-92 > 100 µM | SK-OV-3 > 100 µM | NCI-H460 > 100 µM | U-251 > 100 µM | IGROV-1 > 100 µM | RPMI-8226 > 100 µM | HOP-62 > 100 µM | OVCAR-8 > 100 µM | Malme-3M > 100 µM | A549 > 100 µM | SNB-19 > 100 µM | LOX IMVI > 100 µM | K562 > 100 µM | SK-MEL-2 > 100 µM | HT-29 > 100 µM | SW-620 > 100 µM

From ChEMBL document CHEMBL1201862, “PubChem BioAssay data set” (2004)
